Reference: patent US10017762B2, “Compositions and methods for treating or preventing lupus” (The United States of America, as represented by the …, priority 2010, dated 2018)

Columns and labels:
blood basophils = assay: Blood basophil numbers and HLA-DR expression in SLE patients under immunosuppressive treatments; format: in vivo, human; details: low dose (≤7.5 mg/day) vs medium to high dose (>7.5 mg/day) prednisone
Description: Blood was harvested in EDTA-coated tubes. 4 ml of blood was used to harvest plasma sample. For this purpose, blood was centrifugated at 600×g for 20 minutes at 4° C. Plasma phase was then harvested, and samples kept at […] until further analysis. For basophils analysis, 10 ml of whole blood were added to 20 ml of ACK lysing buffer and incubated 5 min at room temperature and 5 more minutes on ice. 30 ml of PBS was added, and cells were centrifuged (500×g, 5 min). This step was repeated three times total until no more red blood cells were visible. Cells were then resuspended into 10 ml (original volume) of FACS buffer (PBS/1% BSA/0.05% NaN3). Number of leukocytes per ml and viability were assessed with a ViCell cell counter (Beckman and Coulter). Viability was always over 90%. Cells were then processed for extracellular staining with the indicated surface markers. For basophil absolute counts, basophils were identified as FcϵRIα^+CD203c^+CD123^+CD11b^+ cells. For HLA-DR expression analysis, basophils were identified as FcϵRI^+CD203c^+CD11b^+. For CD62L expression analysis, basophils were identified as FcϵRIα^+CD203c^+CD123^+.

FcϵRI = details: Lin, H. et al. (2004); cited from earlier work

With `C[C@]12C=CC(=O)C=C1CC[C@@H]1[C@@H]2C(=O)C[C@@]2(C)[C@H]1CC[C@]2(O)C(=O)CO` [prednisone] the HLA-DR expressing basophils (blood basophils) was “no difference” and the “number of peripheral basophils” value (blood basophils) was “no difference”.
In the case of “omalizumab: recombinant DNA-derived humanized IgG monoclonal antibody that selectively binds to human immunoglobulin E (IgE)”, the “FcϵRI expression on basophils” value (FcϵRI) is listed as “decreases FcϵRI expression on basophils”.
